Our source for the pest or weed control values is patent publication US20180002319A1, “MACROCYCLIC PICOLINAMIDE COMPOUNDS WITH FUNGICIDAL ACTIVITY” (DOW AGROSCIENCES LLC, priority 2014, published 2018).

Each structure is given as a SMILES string. Where two headings read alike, the source gives them in different places.

Holding throughout (assay type): in vivo
In assay [1] the test system is Leptosphaeria nodorum. Put plainly: Wheat Glume Blotch (LEPTNO) fungicidal activity. The settings on record: Parastagonospora nodorum, 24 h, 1DP (1 Day Protectant), read-out: LEPTNO Disease Control. How it is done:
Technical grades of materials were dissolved in acetone, which were then mixed with nine volumes of H2O containing 110 ppm Triton X-100. The fungicide solutions were applied onto wheat seedlings using an automated booth sprayer to run-off. All sprayed plants were allowed to air dry prior to further handling. All fungicides were evaluated using the aforementioned method for their activity vs. all target diseases, unless stated otherwise. Wheat leaf blotch and brown rust activity were also evaluated using track spray applications, in which case the fungicides were formulated as EC formulations, containing 0.1% Trycol 5941 in the spray solutions. Wheat plants (variety Yuma) were grown from seed in a greenhouse in 50% mineral soil/50% soil-less Metro mix until the first leaf was fully emerged, with 7-10 seedlings per pot. These plants were inoculated with an aqueous spore suspension of Zymoseptoria tritici either prior to or after fungicide treatments. After inoculation the plants were kept in 100% relative humidity (one day in a dark dew chamber followed by two to three days in a lighted dew chamber at 20° C.) to permit spores to germinate and infect the leaf. The plants were then transferred to a greenhouse set at 20° C. for disease to develop. When disease symptoms were fully expressed on the 1st leaves of untreated plants, infection levels were assessed on a scale of 0 to 100 percent disease severity. Percent disease control was calculated using the ratio of disease severity on treated plants relative to untreated plants. Example C: Evaluation of Fungicidal Activity: Wheat Glume Blotch (Leptosphaeria nodorum; Bayer Code […]) Wheat plants (variety Yuma) were grown from seed in a greenhouse in 50% mineral soil/50% soil-less Metro mix until the first leaf was fully emerged, with 7-10 seedlings per pot. These plants were inoculated with an aqueous spore suspension of Leptosphaeria nodorum 24 hr after fungicide treatments. After inoculation the plants were kept in 100% relative humidity (one day in a dark dew chamber followed by two days in a lighted dew chamber at 20° C.) to permit spores to germinate and infect the leaf. The plants were then transferred to a greenhouse set at 20° C. for disease to develop. Fungicide formulation, application and disease assessment followed the procedures as described in the Example A.

Assay [2] deals with Zymoseptoria tritici. The experiment in a line: Leaf Blotch of Wheat (SEPTTR) fungicidal activity. The note with it: wheat leaf blotch; for pest or weed control at 121.5 g/ha: Low Volume application, 121.5 g/H; for pest or weed control at 100 ppm: High Volume application. A digest of the protocol: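 Wheat seedlings (Yuma, first leaf emerged) were sprayed to run-off with compound in acetone/water containing Triton X-100 and inoculated with Z. tritici spores before or after treatment. Percent disease control comes from 0–100% severity on treated versus untreated plants.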

Assay [3] deals with Alternaria solani. Put plainly: Tomato Early Blight (ALTESO) fungicidal activity. The settings on record: 24 h, 1DP (1 Day Protectant), read-out: ALTESO Disease Control. How it is done: Technical grades of materials were dissolved in acetone, which were then mixed with nine volumes of H2O containing 110 ppm Triton X-100. The fungicide solutions were applied onto wheat seedlings using an automated booth sprayer to run-off. All sprayed plants were allowed to air dry prior to further handling. All fungicides were evaluated using the aforementioned method for their activity vs. all target diseases, unless stated otherwise. Wheat leaf blotch and brown rust activity were also evaluated using track spray applications, in which case the fungicides were formulated as EC formulations, containing 0.1% Trycol 5941 in the spray solutions. Wheat plants (variety Yuma) were grown from seed in a greenhouse in 50% mineral soil/50% soil-less Metro mix until the first leaf was fully emerged, with 7-10 seedlings per pot. These plants were inoculated with an aqueous spore suspension of Zymoseptoria tritici either prior to or after fungicide treatments. After inoculation the plants were kept in 100% relative humidity (one day in a dark dew chamber followed by two to three days in a lighted dew chamber at 20° C.) to permit spores to germinate and infect the leaf. The plants were then transferred to a greenhouse set at 20° C. for disease to develop. When disease symptoms were fully expressed on the 1st leaves of untreated plants, infection levels were assessed on a scale of 0 to 100 percent disease severity. Percent disease control was calculated using the ratio of disease severity on treated plants relative to untreated plants. Example M: Evaluation of Fungicidal Activity: Tomato Early Blight (Alternaria solani; Bayer Code […]) Tomato plants (variety Outdoor Girl) were propagated in soil-less Metro mix, with each pot having one plant, and used when 12 to 14 days old. Test plants were inoculated with an aqueous spore suspension of Alternaria solani 24 hr after fungicide treatments. After inoculation the plants were kept in 100% relative humidity (one day in a dark dew chamber followed by two to three days in a lighted dew chamber at 20° C.) to permit spores to germinate and infect the leaf. The plants were then transferred to a growth room at 22° C. for disease to develop. Fungicide formulation, application and disease assessment on the sprayed leaves followed the procedures as described in the Example A.

For assay [4], the system named is Magnaporthe grisea; Anamorph: Pyricularia oryzae. The experiment in a line: whole plant or invertebrate. The settings on record: 24 h, read-out: PYRIOR Disease Control.
[5] abbreviates: 24 h, 1 day protectant, read-out: SEPTTR disease control, 1DP (1 Day Protectant).
[6] abbreviates: 72 h, 3 day curative, read-out: SEPTTR disease control, 3DC (3 Day Curative).

As for `COc1ccnc(C(=O)N[C@H]2COCC[C@H](Cc3ccccc3)[C@@H](OCC(C)C)[C@H](C)OC2=O)c1OCOC(C)=O` [Compound 20], the pest or weed control at 100 ppm in assay [1] and in assay [3] was above 80% in each case. Further, the figures for the pest or weed control at 121.5 g/ha in assay [2] (setting [5]) and in assay [2] (setting [6]) were below 80% and above 80%, respectively.
Regarding `COc1ccnc(C(=O)N[C@H]2CCCC[C@H](Oc3ccccc3)[C@@H](Oc3ccccc3)[C@H](C)OC2=O)c1OCOC(C)=O` [Compound 19], the pest or weed control at 100 ppm in assay [2] (setting [5]), in assay [2] (setting [6]), in assay [3] and in assay [4] was above 80% in each case. The pest or weed control at 121.5 g/ha in assay [2] (setting [5]) and in assay [2] (setting [6]) was above 80% throughout.
On to `CCCCO[C@H]1CCOC[C@H](NC(=O)c2nccc(OC)c2OCOC(C)=O)C(=O)O[C@@H](C)[C@@H]1OCc1ccccc1` [Compound 2], for which the pest or weed control at 100 ppm in assay [1] was above 80%; in assay [2] (setting [5]), above 80%; in assay [2] (setting [6]) it was below 80%; in assay [3], below 80%; in assay [4], above 80%. In assay [2] (setting [5]), the pest or weed control at 121.5 g/ha was below 80%.
On to `CCCO[C@H]1[C@H](C)OC(=O)[C@@H](NC(=O)c2nccc(OC)c2OCOC(C)=O)CCCC[C@@H]1Oc1ccccc1` [Compound 18], for which the pest or weed control at 100 ppm in assay [2] (setting [5]), in assay [2] (setting [6]), in assay [3] and in assay [4] was above 80% each time.
Regarding `CCCCO[C@H]1CCOC[C@H](NC(=O)c2nccc(OC)c2OCOC(C)=O)C(=O)O[C@@H](C)[C@@H]1OC(=O)c1ccccc1` [Compound 4], the pest or weed control at 100 ppm in assay [1] was above 80%; in assay [2] (setting [5]) it was above 80%; in assay [2] (setting [6]), below 80%; in assay [3], above 80%; in assay [4], above 80%. The pest or weed control at 121.5 g/ha in assay [2] (setting [5]) was below 80%.
As to `COc1ccnc(C(=O)N[C@H]2COCC[C@@H](OCC(C)C)[C@@H](OCC(C)C)[C@H](C)OC2=O)c1OCOC(C)=O` [Compound 6], the pest or weed control at 100 ppm in assay [1] is above 80%; in assay [2] (setting [5]) it was above 80%; in assay [3], below 80%; in assay [4], above 80%.
As for `COc1ccnc(C(=O)N[C@H]2CCOC[C@H](Oc3ccccc3)[C@@H](Oc3ccccc3)[C@H](C)OC2=O)c1OCOC(C)=O` [Compound 37], the pest or weed control at 100 ppm in assay [1] and in assay [4] was above 80% each time. Besides, the pest or weed control at 121.5 g/ha in assay [2] (setting [5]) and in assay [2] (setting [6]) was above 80% each time.
Turning to `COc1ccnc(C(=O)N[C@H]2COCC[C@H](Cc3ccccc3)[C@@H](OCC(C)C)[C@H](C)OC2=O)c1OC(C)=O` [Compound 21], the pest or weed control at 100 ppm in assay [1] and in assay [3] was above 80% in each case. For the same compound, the pest or weed control at 121.5 g/ha in assay [2] (setting [5]) was below 80%; in assay [2] (setting [6]), above 80%.
For the compound `CCCCO[C@H]1CCOC[C@H](NC(=O)c2nccc(OC)c2OCOC(C)=O)C(=O)O[C@@H](C)[C@@H]1OC(=O)C1CC1` [Compound 5], the pest or weed control at 100 ppm in assay [1] is above 80%; in assay [2] (setting [5]), above 80%; in assay [2] (setting [6]) it was below 80%; in assay [3], below 80%; in assay [4], below 80%.
As for `CCCCO[C@H]1CCOC[C@H](NC(=O)c2nccc(OC)c2OCOC(C)=O)C(=O)O[C@@H](C)[C@@H]1OC(=O)C(C)C` [Compound 3], the pest or weed control at 100 ppm was above 80% in assay [1]; above 80% in assay [2] (setting [5]); below 80% in assay [2] (setting [6]); above 80% in assay [3]; above 80% in assay [4].
Consider `CCCCCO[C@H]1[C@H](C)OC(=O)[C@@H](NC(=O)c2nccc(OC)c2OCOC(C)=O)CCCC[C@@H]1Oc1ccccc1` [Compound 17], for which the pest or weed control at 100 ppm in assay [2] (setting [5]), in assay [2] (setting [6]), in assay [3] and in assay [4] was above 80% throughout.
